Read-outs that look alike come from different tables or passages of the source.
Assays:
in vivo = conditions: po, mouse, preliminary, read-out: Toxicity (LD50)
KB-8-5 cells [1] = assay: cytotoxicity (IC50) of the test substance, MTT/formazan color reaction; format: cell-based; conditions: Homo sapiens, 120 h
From the text: (§1) KB-8-5 cells, a human cell line with multiple resistance to cytostatics, and KB-3-1 cells, a correspondingly sensitive cell line [Cell. Mol. Genet. 11, 117-126, (1985) and Science 232, 643-645, (1986)], were cultivated in suitable media [Cancer Res. 94, 267-275, (1984), Exp. Hematol. 12, 559-567, (1984), Eliason, Ramuz & Kaufmann in Int. J. Cancer 46, 113-117, (1990)].
(§2) The biological test is based on the ability of the test substance to lower the concentration of a standard cytostatic which is required to kill 50% of the cells. The testing and the determination of cytotoxicity are based on the ability of living cells to reduce 3-(4,5-dimethylthiazol-2-yl)-2,5-diphenyltetrazolium bromide to the corresponding blue formazan (colorimetric measurement) [J. Immunol. Methods 65, 55-63, (1985)]. The cells were incubated for 2 days in separate containers. The compounds selected for the biological investigation were added to the cell cultures in such a manner that the serial concentrations 10^-8 M, 10^-7 M, 10^-6 M, 10^-5 M and 10^-4 M were achieved. Vincristine in 4 dilution series (3·10^-9 M, 10^-8 M, 3·10^-8 M and 10^-7 M for KB-8-5 cells and 30 times less for the KB-3-1 cells) was added thereto. After incubating for 5 days the cell count was measured at 540 nm using the formazan color reaction. The evaluation was carried out by calculating a resistance modification index, RMI, which is the ratio between the IC50 value of vincristine in the absence of a test substance and the IC50 value of vincristine in the presence of a test substance. [formula]
In order to compare all activities of compounds from different classes, a RMI0.1 is defined: this is the RMI value of a substance which is obtained with the ten-fold lower concentration than the IC50 value. (RMI0.1 ≡RMI at 0.1·IC50 of the substance). […] The preliminary toxicological data (LD50, mouse) after oral administration of the test compound are also given.

KB-8-5 cells [2] = assay: resistance modification index (RMI) test with vincristine in multidrug-resistant cells (formazan colorimetric measurement); format: cell-based, human; conditions: RMI at 0.1·IC50 of the substance; RMI = IC50 vincristine without / with test substance; n = 2 (A-E) or 4 (verapamil)
From the text: The modifying activity of multiple resistance to cytostatics of the compounds of formula I, of rac-N-(3,4-dimethoxyphenethyl)-2-(3,4-dimethoxyphenyl)-β,N-dimethyl-m-dithiane-2-propanamine and of usual reference substances was investigated as follows:
as §1
as §2, with “The” for “The biological test is based on the ability of the test substance to lower the concentration of a standard cytostatic which is required to kill 50% of the cells. The”
(RMI0.1 ≡RMI at 0.1·IC50 of the substance).

[3] = tested on: multiple resistance to cytostatics (multidrug resistance); assay: elimination of multiple resistance to cytostatics (literature and background statements); conditions: compared with compounds of formula I
[4] = tested on: multiple resistance to cytostatics (multidrug resistance); conditions: literature; cited from earlier work
[5] = background statement, no test given; cited from earlier work

**Q.** With `COc1ccc(CCN(C)CC(C)CC2(c3ccc(Cl)cc3)SCCCS2)cc1OC.Cl` (racemic) [A, rac-2-(4-Chlorophenyl)-N-(3,4-dimethoxyphenethyl)-β,N-dimethyl-m-dithiane-2-propanamine hydrochloride] as the molecule, how does the LD50 (in vivo) read?
**A.** 1250 to 2500 mg/kg

**Q.** And the IC50 (KB-8-5 cells [1]; read-out: IC50)?
**A.** 14 µM

**Q.** And the “Vincristine RMI0.1” value (KB-8-5 cells [2])?
**A.** 216

**Q.** For `COc1ccc(CCN(C)CC(C)CC2(c3ccc(C)cc3)SCCCS2)cc1OC.Cl` (racemic) [B, rac-N-(3,4-dimethoxyphenethyl)-β,N-dimethyl-2-(4-tolyl)-m-dithiane-2-propanamine hydrochloride], which LD50 (in vivo) is on record?
**A.** 625 to 1250 mg/kg

**Q.** What about the IC50 (KB-8-5 cells [1]; read-out: IC50) of the same molecule?
**A.** 14 µM

**Q.** What about the “Vincristine RMI0.1” value (KB-8-5 cells [2]) of the same molecule?
**A.** 159

**Q.** Which LD50 (in vivo) does the source give for `COc1ccc(C2(CN(C)CC(C)CC3(c4cc(OC)c(OC)c(OC)c4)SCCCS3)CCC2)cc1OC.Cl` (racemic) [C, rac-N-[[1-(3,4-dimethoxyphenyl)cyclobutyl]methyl]-β,N-dimethyl-2-(3,4,5-trimethoxyphenyl)-m-dithiane-2-propanamine hydrochloride] here?
**A.** 1000 to 2000 mg/kg

**Q.** And the IC50 (KB-8-5 cells [1]; read-out: IC50)?
**A.** 21 µM

**Q.** What about the “Vincristine RMI0.1” value (KB-8-5 cells [2]) of the same molecule?
**A.** 224

**Q.** For `COc1ccc(C2(CN(C)CC(C)CC3(c4ccc(OC)c(OC)c4)SCCCS3)CCC2)cc1OC.Cl` (racemic) [D, rac-2-(3,4-dimethoxyphenyl)-N-[[1-(3,4-dimethoxyphenyl)cyclobutyl]methyl]-β,N-dimethyl-m-dithiane-2-propanamine hydrochloride], which LD50 (in vivo) is on record?
**A.** 1000 to 2000 mg/kg

**Q.** What about the IC50 (KB-8-5 cells [1]; read-out: IC50) of the same molecule?
**A.** 21 µM

**Q.** And the “Vincristine RMI0.1” value (KB-8-5 cells [2])?
**A.** 163

**Q.** Which results are given for `COc1ccc(C2(CC(C)CN(C)CCc3ccc(Cl)cc3)SCCCS2)cc1OC.Cl` (racemic) [E, rac-N-(4-chlorophenethyl)-2-(3,4-dimethoxyphenyl)-β,N-dimethyl-m-dithiane-2-propanamine hydrochloride]?
**A.** LD50 (in vivo): 2500 to 5000 mg/kg; IC50 (KB-8-5 cells [1]; read-out: IC50): 7.7 µM; Vincristine RMI0.1 (KB-8-5 cells [2]): 24

**Q.** With `COc1ccc(CCN(C)CCCC2(c3ccc4ccccc4c3)SCCCS2)cc1OC` (racemic) [rac-N-(3,4-dimethoxyphenethyl)-N-methyl-2-(2-naphthyl)-m-dithiane-2-propanamine] as the molecule, how does the “activity vis-a-vis the novel compounds of formula I” value [3] read?
**A.** clearly lower activity

**Q.** What about the “activity in eliminating multiple resistance” value [4] of the same molecule?
**A.** certain activity in partially or completely eliminating multiple resistance

**Q.** And the toxicity [5]?
**A.** relatively toxic

**Q.** What does the source list for `COc1ccc(CCN(C)CCC[C@](C#N)(c2ccc(OC)c(OC)c2)C(C)C)cc1OC` [(+)Verapamil, reference compound]?
**A.** IC50 (KB-8-5 cells [1]): 62 µM; Vincristine RMI0.1 (KB-8-5 cells [2]): 12

**Q.** What does the source list for `COc1ccc(CCN(C)CCC[C@@](C#N)(c2ccc(OC)c(OC)c2)C(C)C)cc1OC` [(-)Verapamil, reference compound]?
**A.** IC50 (KB-8-5 cells [1]): 72 µM; Vincristine RMI0.1 (KB-8-5 cells [2]): 47

**Q.** For `C=C[C@H]1C[N@@]2CC[C@H]1C[C@@H]2[C@@H](O)c1ccnc2ccc(OC)cc12` [quinidine], which “activity in eliminating multiple resistance” value [4] is on record?
**A.** certain activity in partially or completely eliminating multiple resistance

**Q.** With `CN1CCN(CCCN2c3ccccc3Sc3ccc(C(F)(F)F)cc32)CC1` [trifluoperazine] as the molecule, how does the “activity in eliminating multiple resistance” value [4] read?
**A.** certain activity in partially or completely eliminating multiple resistance

**Q.** For `COc1ccc(CCN(C)CCCC(C#N)(c2ccc(OC)c(OC)c2)C(C)C)cc1OC` (stereo not shown) [verapamil], which “activity in eliminating multiple resistance” value [4] is on record?
**A.** certain activity in partially or completely eliminating multiple resistance
